# Measurements taken from patent US20070293666A1, “Optical Filter and Its Applications, and Porphyrin Compound Used in Optical Filter” (Mitsui Chemicals, Inc., priority 2004, published 2007).
# Tests used:
# Type in all cases: physicochemical
# Solubility in acetone = experiment: Solubility in acetone; design: key: ∘: completely dissolved; x: not completely dissolved
# Protocol: (§1) Compounds represented by the compound Nos. 1-1, 1-2, 1-3, 1-4 and 1-7 (Table 1-1) were synthesized in the same manner as in Examples 1-1 and 1-2. With respect to compounds synthesized in Example 1-2 and Synthesis Example 1-1 along with these compounds, the maximum absorption wavelength (λmax), the gram absorption coefficient (εg) and solubility were measured.
# (§2) λmax and εg are values in the chloroform solution, while the solubility is weight % based on acetone.
# [1] = Absorption spectrum in chloroform (maximum absorption wavelength, gram absorption coefficient, 550/525 nm coefficient ratio); conditions: chloroform solution
# Protocol: as §1, §2
# With respect to the compounds represented by the compound Nos. 1-2, 1-3, 1-6 and 1-7 synthesized in Examples 1-2 and 1-3 (corresponding to compounds (3-B), (3-C), (3-E) and (3-F) respectively) along with the obtained compound (3-A), the maximum absorption wavelength and the ratio of the absorption coefficient at a wavelength of 550 nm to the absorption coefficient at a wavelength of 525 nm, which were measured in a chloroform solvent, are shown in Table 3-1. [drawing 26] [drawing 27] [drawing 28] [drawing 29]
# [2] = Light transmittance of spin-coated optical filter (acrylic adhesive on glass plate); conditions: 0.1 weight % dye diluting agent mixed with acrylic adhesive, dry film 5 μm
# Protocol: (§3) A compound represented by the compound No. 1-4 (Table 1-1) was dissolved in a mixed solvent of acetone and toluene (weight ratio 50:50) such that the concentration was 0.1 weight % to give a dye-containing diluting agent. An acrylic adhesive and the dye-containing diluting agent (weight ratio 50:70) were mixed and applied by spin coating at 800 rpm for 30 seconds onto a glass plate, and the resulting material was dried to prepare an optical filter. The dry film thickness of the coating layer was 5 μm. In the above filter, light transmittance was measured by using a spectrophotometer (UV-3100, manufactured by Shimadzu Corporation). Light transmittance in a wavelength of 550 nm was 47.2%.
# as §3, with “2-12” for “1-4”, “2-2) synthesized in the same manner as in Examples 2-1 and 2-2” for “1-1)”, “plate” for “plate,”, “Light transmittance in a wavelength of 550 nm was 47.2%.” left out
smiles,measurement,setting,value
CCCCCCCCCCOc1ccc(C2=c3nc(c4c5cccc6cccc(c3=4)c65)C(c3ccc(OCCCCCCCCCC)cc3)=c3c4c(c5[n]3[Cu][n]3c2c2c(c3C(c3ccc(OCCCCCCCCCC)cc3)=c3nc(c6c7cccc8cccc(c3=6)c87)C=5c3ccc(OCCCCCCCCCC)cc3)-c3cccc5cccc-2c35)-c2cccc3cccc-4c23)cc1 [1-4],Solubility 0.1%,Solubility in acetone; 0.1 weight % based on acetone,∘
same,Solubility 0.2%,Solubility in acetone; 0.2 weight % based on acetone,∘
same,Solubility 1.0%,Solubility in acetone; 1.0 weight % based on acetone,∘
same,εg (gram absorption coefficient),[1],"115,000"
same,λmax,[1],552 nm
same,Light transmittance in a wavelength of 550 nm,[2],47.2%
